Active and inactive are the calls of the source. The calls are words filed in the database; no cut-off is given here.
Legend:
[1] = species: Danio rerio; assay: Anticonvulsant activity in AB zebra fish larvae assessed as PTZ-induced seizure duration time at 6.2 uM pretreated for 6 hrs followed by PTZ-stimulation and measured every 5 mins for 30 mins (reference value: 0.32 +/- 0.31 s); format: functional; settings: time 6.5 hrs
[2] = species: Danio rerio; assay: Anticonvulsant activity in AB zebra fish larvae assessed as reduction in PTZ-induced convulsant behavior by measuring swimming distance at 12.5 uM pretreated for 6 hrs followed by PTZ-stimulation and measured every 5 mins for 1 hr relative to control; format: functional; parameters: scale not given: the % may be the effect or the level left; settings: time 7 hrs
[3] = species: Danio rerio; assay: Anticonvulsant activity in AB zebra fish larvae assessed as PTZ-induced c-fos mRNA expression at 25 uM pretreated for 6 hrs followed by PTZ-stimulation and measured after 30 mins by qRT-PCR analysis (reference value: 8.91 +/- 0.54%); format: functional; settings: time 6.5 hrs
[4] = Neurotoxicity in AB zebra fish larvae assessed as decrease in total swimming distance at <= MTC after 6 hrs; format: toxicity, Danio rerio; settings: zebrafish
[5] = species: Danio rerio; assay: Anticonvulsant activity in AB zebra fish larvae assessed as PTZ-induced calb2 mRNA expression at 25 uM pretreated for 6 hrs followed by PTZ-stimulation and measured after 30 mins by qRT-PCR analysis (reference value: 0.88 +/- 0.39%); format: functional; settings: time 6.5 hrs
[6] = species: Danio rerio; assay: Anticonvulsant activity in AB zebra fish larvae assessed as PTZ-induced GLULA mRNA expression at 25 uM pretreated for 6 hrs followed by PTZ-stimulation and measured after 30 mins by qRT-PCR analysis (reference value: 5.44 +/- 0.55%); format: functional; settings: time 6.5 hrs
[7] = species: Danio rerio; assay: Anticonvulsant activity in AB zebra fish larvae assessed as reduction in PTZ-induced convulsant behavior by measuring swimming distance at 6.2 uM pretreated for 6 hrs followed by PTZ-stimulation and measured every 5 mins for 1 hr; format: functional, organism-based; settings: time 7.0 hrs
[8] = species: Danio rerio; assay: Anticonvulsant activity in AB zebra fish larvae assessed as PTZ-induced gad1 mRNA expression at 25 uM pretreated for 6 hrs followed by PTZ-stimulation and measured after 30 mins by qRT-PCR analysis (reference value: 5.45 +/- 1.77%); format: functional; settings: time 6.5 hrs
[9] = species: Danio rerio; assay: Anticonvulsant activity in AB zebra fish larvae assessed as PTZ-induced number of burst at 25 uM pretreated for 6 hrs followed by PTZ-stimulation and measured every 5 mins for 30 mins (reference value: 9.25 +/- 6.36); format: functional; settings: time 6.5 hrs
[10] = Effect of c-fos mRNA expression in AB zebra fish larvae at 25 uM after 6 hrs by qRT-PCR analysis (reference value: 1.06 +/- 0.52%); format: ADME, Danio rerio; settings: zebrafish
[11] = species: Danio rerio; assay: Anticonvulsant activity in AB zebra fish larvae assessed as PTZ-induced velocity at 25 uM pretreated for 6 hrs followed by PTZ-stimulation and measured every 5 mins for 30 mins (reference value: 0.63 +/- 0.23 mm/s); format: functional; settings: time 6.5 hrs
[12] = Effect of gabra1 mRNA expression in AB zebra fish larvae at 25 uM after 6 hrs by qRT-PCR analysis (reference value: 1 +/- 0.11%); format: ADME, Danio rerio; settings: zebrafish
[13] = Effect of pvalb5 mRNA expression in AB zebra fish larvae at 25 uM after 6 hrs by qRT-PCR analysis (reference value: 1 +/- 0.07%); format: ADME, Danio rerio; settings: zebrafish
[14] = species: Danio rerio; assay: Anticonvulsant activity in AB zebra fish larvae assessed as PTZ-induced seizure duration time at 12.5 uM pretreated for 6 hrs followed by PTZ-stimulation and measured every 5 mins for 30 mins (reference value: 0.32 +/- 0.31 s); format: functional; settings: time 6.5 hrs
[15] = species: Danio rerio; assay: Anticonvulsant activity in AB zebra fish larvae assessed as PTZ-induced seizure activity at 25 uM pretreated for 6 hrs followed by PTZ-stimulation and measured every 5 mins for 30 mins (reference value: 14.13 +/- 0.004 mm); format: functional; settings: time 6.5 hrs
[16] = Effect of npas4a mRNA expression in AB zebra fish larvae at 25 uM after 6 hrs by qRT-PCR analysis (reference value: 1.04 +/- 0.41%); format: ADME, Danio rerio; settings: zebrafish
[17] = species: Danio rerio; assay: Anticonvulsant activity in AB zebra fish larvae assessed as PTZ-induced BDNF mRNA expression at 25 uM pretreated for 6 hrs followed by PTZ-stimulation and measured after 30 mins by qRT-PCR analysis (reference value: 11.41 +/- 1.09%); format: functional; settings: time 6.5 hrs
[18] = species: Danio rerio; assay: Anticonvulsant activity in AB zebra fish larvae assessed as PTZ-induced pvalb5 mRNA expression at 25 uM pretreated for 6 hrs followed by PTZ-stimulation and measured after 30 mins by qRT-PCR analysis (reference value: 0.59 +/- 0.52%); format: functional; settings: time 6.5 hrs
[19] = species: Danio rerio; assay: Anticonvulsant activity in AB zebra fish larvae assessed as PTZ-induced PYYA mRNA expression at 25 uM pretreated for 6 hrs followed by PTZ-stimulation and measured after 30 mins by qRT-PCR analysis (reference value: 18.53 +/- 4.32%); format: functional; settings: time 6.5 hrs
[20] = Effect of calb2 mRNA expression in AB zebra fish larvae at 25 uM after 6 hrs by qRT-PCR analysis (reference value: 1.02 +/- 0.33%); format: ADME, Danio rerio; settings: zebrafish
[21] = Effect of GLSA mRNA expression in AB zebra fish larvae at 25 uM after 6 hrs by qRT-PCR analysis (reference value: 1 +/- 0.18%); format: ADME, Danio rerio; settings: zebrafish
[22] = Effect of gat1 mRNA expression in AB zebra fish larvae at 25 uM after 6 hrs by qRT-PCR analysis (reference value: 1.03 +/- 0.38%); format: ADME, Danio rerio; settings: zebrafish
[23] = species: Danio rerio; assay: Anticonvulsant activity in AB zebra fish larvae assessed as PTZ-induced GLSA mRNA expression at 25 uM pretreated for 6 hrs followed by PTZ-stimulation and measured after 30 mins by qRT-PCR analysis (reference value: 3.4 +/- 0.5%); format: functional; settings: time 6.5 hrs
[24] = Effect of GLULA mRNA expression in AB zebra fish larvae at 25 uM after 6 hrs by qRT-PCR analysis (reference value: 1.02 +/- 0.29%); format: ADME, Danio rerio; settings: zebrafish
[25] = species: Danio rerio; assay: Anticonvulsant activity in AB zebra fish larvae assessed as PTZ-induced number of burst at 6.2 uM pretreated for 6 hrs followed by PTZ-stimulation and measured every 5 mins for 30 mins (reference value: 9.25 +/- 6.36); format: functional; settings: time 6.5 hrs

CC(C)=CCC/C(C)=C/C[C@@]1(CC=C(C)C)C(=O)C(O)=C(O)c2oc3c4c(cc(O)c3c(=O)c21)OC(C)(C)C=C4
Time [1]: 18.46 s
Activity [2]: 25%
Activity [3]: 3.31%
Activity [4]: Non-Toxic
Activity [5]: 0.97%
Activity [6]: 1.61%
Activity [7]: inactive
Activity [8]: 1.08%
Activity [9]: 142.3
Activity [10]: 1.67%
Activity [11]: 0.8 millimeter/sec
Activity [12]: 1.77%
Activity [13]: 0.86%
Time [14]: 8.18 s
Activity [15]: 557.9 mm
Activity [16]: 1.95%
Activity [17]: 1.32%
Activity [18]: 0.85%
Activity [19]: 1.09%
Activity [20]: 0.86%
Activity [21]: 0.78%
Activity [22]: 0.87%
Activity [23]: 0.92%
Activity [24]: 0.76%
Activity [25]: 287.3

Reference: ChEMBL document CHEMBL4715874, “In Vivo Screening of Xanthones from Garcinia oligantha Identified Oliganthin H as a Novel Natural Inhibitor of Convulsions” (J Nat Prod, 2020)
